Assay results from patent publication US12649750B2, “Macrocyclic compounds, compositions, and methods of using thereof” (Sionna Therapeutics Inc., priority 2022, dated 2026).

Target: T1, NBD1 (Homo sapiens, UniProt P13569)
T1 construct: Purified recombinant NBD1 was produced using previously described methods; made in house
Assay: Aggregation analysis using differential static light scattering (DSLS), thermal stability of NBD1 (ΔTagg)
Assay type: binding
Conditions: ΔTagg versus DMSO control, NBD1 0.2 mg/ml
Outline: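 Thermal aggregation of purified NBD1 was followed by static light scattering during a 1° C./min ramp to 70° C. Protein was at 0.2 mg/ml with 2 mM ATP at pH7.6. Each compound's Tagg was referenced to DMSO controls.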

T1 sequence (P13569 423-646 limits assumed): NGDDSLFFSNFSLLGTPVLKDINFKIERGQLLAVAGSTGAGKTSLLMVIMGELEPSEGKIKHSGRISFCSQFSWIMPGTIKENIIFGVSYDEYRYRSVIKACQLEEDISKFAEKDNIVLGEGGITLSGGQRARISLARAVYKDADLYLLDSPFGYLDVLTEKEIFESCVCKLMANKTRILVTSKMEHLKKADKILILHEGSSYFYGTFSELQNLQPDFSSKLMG

Cn1nc2nc1-c1cc(ccn1)Sc1c(F)cc3[nH]ccc3c1CCS(=O)(=O)CC(C)(C)CCC[C@]2(C)c1cccc(C[C@H](O)CO)c1 [Compound 333, (2S)-3-[3-[(6R)-22-Fluoro-3,6,10,10-tetramethyl-12,12-dioxo-12λ6,24-dithia-3,4,19,28,30-pentazapentacyclo[23.3.1.12,5.015,23.016,20]triaconta-1(29),2(30),4,15,17,20,22,25,27-nonaen-6-yl]phenyl]propane-1,2-diol]
DSLS 3D (100 μM ΔT): B (a value above 5 °C and less than or equal to 10 °C is marked “B”)

Cn1nc2nc1-c1cc(ccn1)S(=O)(=O)c1c(F)cc3[nH]ccc3c1CCS(=O)(=O)CC(C)(C)CCC[C@]2(C)c1cccc(C[C@H](O)CO)c1 [Compound 335, (2S)-3-[3-[(6R)-22-Fluoro-3,6,10,10-tetramethyl-12,12,24,24-tetraoxo-12λ6,24λ6-dithia-3,4,19,28,30-pentazapentacyclo[23.3.1.12,5.015,23.016,20]triaconta-1(29),2(30),4,15,17,20,22,25,27-nonaen-6-yl]phenyl]propane-1,2-diol]
DSLS 3D (100 μM ΔT): A (an ΔTagg value less than or equal to 5 °C is marked “A”)

CC(=O)OC[C@@H](Cc1cccc([C@@]2(C)CCCC(C)(C)CS(=O)(=O)CCc3c(c(F)cc4[nH]ccc34)Sc3ccnc(c3)-c3nc2nn3C)c1)OC(C)=O [Compound 336A, [(2R)-2-Acetoxy-3-[3-[(6R)-22-fluoro-3,6,10,10-tetramethyl-12,12-dioxo-12λ6,24-dithia-3,4,19,28,30-pentazapentacyclo[23.3.1.12,5.015,23.016,20]triaconta-1(29),2(30),4,15,17,20,22,25,27-nonaen-6-yl]phenyl]propyl]Acetate]
DSLS 3D (100 μM ΔT): A (an ΔTagg value less than or equal to 5 °C is marked “A”)

Cn1nc2nc1-c1cc(ccn1)Sc1c(F)cc3[nH]ccc3c1CCS(=O)(=O)CC(C)(C)CCC[C@]2(C)c1cccc(C[C@@H](O)CO)c1 [Compound 336B, (2R)-3-[3-[(6R)-22-Fluoro-3,6,10,10-tetramethyl-12,12-dioxo-12λ6,24-dithia-3,4,19,28,30-pentazapentacyclo[23.3.1.12,5.015,23.016,20]triaconta-1(29),2(30),4,15,17,20,22,25,27-nonaen-6-yl]phenyl]propane-1,2-diol]
DSLS 3D (100 μM ΔT): A (an ΔTagg value less than or equal to 5 °C is marked “A”)

Cn1nc2nc1-c1cc(ccn1)S(=O)(=O)c1c(F)cc3[nH]ccc3c1CCS(=O)(=O)CC(C)(C)CCC[C@]2(C)c1cccc(C[C@@H](O)CO)c1 [Compound 338, (2R)-3-[3-[(6R)-22-Fluoro-3,6,10,10-tetramethyl-12,12,24,24-tetraoxo-12λ6,24λ6-dithia-3,4,19,28,30-pentazapentacyclo[23.3.1.12,5.015,23.016,20]triaconta-1(29),2(30),4,15,17,20,22,25,27-nonaen-6-yl]phenyl]propane-1,2-diol]
DSLS 3D (100 μM ΔT): A (an ΔTagg value less than or equal to 5 °C is marked “A”)

CC(=O)OC[C@H](Cc1cccc([C@@]2(C)CCCC(C)(C)CS(=O)(=O)CCc3c(c(F)c(F)c4[nH]ccc34)Sc3ccnc(c3)-c3nc2nn3C)c1)OC(C)=O [Compound 339, [(2S)-2-acetoxy-3-[3-[(6R)-21,22-difluoro-3,6,10,10-tetramethyl-12,12-dioxo-12λ6,24-dithia-3,4,19,28,30-pentazapentacyclo[23.3.1.12,5.015,23.016,20]triaconta-1(29),2(30),4,15,17,20,22,25,27-nonaen-6-yl]phenyl]propyl]Acetate]
DSLS 3D (100 μM ΔT): A (an ΔTagg value less than or equal to 5 °C is marked “A”)

Cn1nc2nc1-c1cc(ccn1)Sc1c(F)c(F)c3[nH]ccc3c1CCS(=O)(=O)CC(C)(C)CCC[C@]2(C)c1cccc(C[C@H](O)CO)c1 [Compound 340, (2S)-3-[3-[(6R)-21,22-Difluoro-3,6,10,10-tetramethyl-12,12-dioxo-12λ6,24-dithia-3,4,19,28,30-pentazapentacyclo[23.3.1.12,5.015,23.016,20]triaconta-1(29),2(30),4,15,17,20,22,25,27-nonaen-6-yl]phenyl]propane-1,2-diol]
DSLS 3D (100 μM ΔT): B (a value above 5 °C and less than or equal to 10 °C is marked “B”)
